Assay results reported in paper PMC3387161, “Small Molecules Targeted to a Non-Catalytic “RVxF” Binding Site of Protein Phosphatase-1 Inhibit HIV-1” (PLoS ONE, 2012).
pIC50: −log10 of the molar value.

Experiments:
[1] = test system: 293T cells; experiment: Cellular proteome analysis by mass spectrometry in 293T cells; assay type: cell-based, human; settings: 10 µM, 18 h, 28 proteins with highest SEQUEST scores
Method: To determine if 1H4 has a negative effect on protein expression profiles, we analyzed the global cellular proteome by mass spectrometry. Protein expression was analyzed in 293T cells untreated or treated with 1H4 as described in Materials and Methods. We detected expression of 1722 proteins in the untreated sample and 1739 proteins in the 1H4-treated sample (not shown).
Samples were separated by reversed-phase liquid chromatography (HPLC), using micro-capillary column C18, coupled in line with nanospray and tandem mass spectrometer Thermo LTQ Orbitrap XL. The LC gradient was run for 60 min from 2% to 30% of acetonitrile containing 0.1% formic acid at flow rate 400 nL/min. In single measurement block we performed 1 FT MS scan and 3 data dependent FT MS/MS scans on major multi-charged MS peaks with resolution 30000. The normalized collision-induced dissociation (CID) energy was 35%. The MS/MS spectra were compared against those in the NCBI human protein database. Proteins that were not present in the database, i.e. recombinant Flag-Tat, were manually added to the database. Only peptides having X-correlation (X corr) cutoffs of 1.9 for [M +2H]^2+, 2.3 for [M +3H]^3+ and higher charge state were considered. […]
As a negative control untreated cells were used. […] The MS-MS data were analyzed by SEQUEST.

[2] = test system: HIV-1 LTR-Lac Z reporter in 293T cells; experiment: HIV-1 LTR-directed transcription in 293T cells transfected with Tat vector and HIV-1 LTR-LacZ reporter; assay type: cell-based; settings: Human immunodeficiency virus 1, HEK-293T, read-out: IC50 for inhibition of HIV-1 LTR-directed transcription in 293T cells
[3] = biological target: PP1α (Homo sapiens, UniProt P62136); experiment: Nuclear and cytoplasmic distribution of PP1α-EGFP in HeLa and 293T cells; assay type: cell-based; parameters: expressed in transfected cells; host or cells: HeLa; 293T
Source text: In live cells, PP1α is dynamically distributed between the cytoplasm and the nucleus, and its shuttling into the nucleus is thought to be regulated by its interaction with sds22 and inhibitor-3 regulatory subunits. […] We analyzed the effect of 1H4 on nuclear localization of PP1α in HeLa cells that were transfected with Flag-Tat and PP1α-EGFP expression vectors and treated with 1H4 or a control compound for 18hrs. In untreated cells, PP1α was localized in the perinuclear area and cytoplasm (Fig. 8A). Co-expression of Tat increased nuclear and perinuclear localization of PP1α (Fig. 8B). Co-expression of mutant Tat ^35QACA^38 in contrast led to a more homogeneous distribution of PP1α (Fig. 8C). […] To achieve quantifiable results, we measured fluorescence of PP1α-EGFP in nuclear and cytoplasmic fractions of 293T cells that were transfected with PP1α-EGFP or PP1α-EGFP and Tat expression vectors and treated with 1H4. […]
Figure 8 1H4 compound disrupts the Tat-mediated translocation of PP1 into the nucleus. […] Fluorescence was measured in the nuclear and cytoplasmic fractions using Perkin-Elmer Luminoscan. […]
Nuclear and cytoplasmic extracts were prepared using a modification of previously described method. […] Fluorescence was measured in cytoplasmic and nuclear lysates at 480 nm excitation and 510 nm emission on Luminescence Spectrometer LS50B (Perkin-Elmer).

Sequence of PP1α (P62136 whole entry): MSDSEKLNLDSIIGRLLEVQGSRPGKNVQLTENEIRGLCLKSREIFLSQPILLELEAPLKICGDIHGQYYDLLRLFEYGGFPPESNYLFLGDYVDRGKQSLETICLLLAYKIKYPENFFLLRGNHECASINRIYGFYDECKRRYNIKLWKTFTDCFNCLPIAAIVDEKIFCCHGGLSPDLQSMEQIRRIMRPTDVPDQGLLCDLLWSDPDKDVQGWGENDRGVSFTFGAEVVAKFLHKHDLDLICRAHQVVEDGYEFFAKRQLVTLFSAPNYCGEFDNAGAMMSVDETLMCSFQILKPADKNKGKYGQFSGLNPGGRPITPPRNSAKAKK

Compound: COCCNC(=O)COC(=O)c1c2c(nc3ccccc13)/C(=C/c1ccc(O)cc1)CCC2 [1H4]
- Effect on cellular proteome [1]: did not significantly change the cellular proteome
- pIC50 [2]: 5.30
- Nuclear PP1α-EGFP fluorescence in fractionated cells ([3]; 293T cells, absence and presence of Tat, versus untreated or 1G3): significant decrease of nuclear PP1α-EGFP
- Nuclear localization of PP1α in presence of Tat (fluorescence microscopy) ([3]; HeLa cells, Flag-Tat and PP1α-EGFP, 10 µM, 18 hours): diminished nuclear localization of PP1α
